Measurements published in patent publication US8853251B2, “Ester pro-drugs of [3-(1-(1H-imidazol-4-YL)ethyl)-2-methylphenyl] methanol for treating retinal diseases” (Allergan, Inc., priority 2010, dated 2014).

Legend:
[1] = tested on: blue light model of retinal degeneration in rats; test: The Blue Light Model of retinal degeneration; format: in vivo, rat; details: male Sprague Dawley rats, subcutaneous infusion pumps 1 mg/kg/day starting two days before blue light (4 hours, 6100-6500 lux), OCT at 7 days post exposure
Experimental: Pro-drug iso-Butyric acid 3-[(S)-1-(1H-imidazol-4-yl)-ethyl]-2-methyl-benzyl ester is evaluated in the blue light model of retinal degeneration in rats. The drugs is administered continuously with subcutaneous infusion pumps at a dose of 1 mg/kg/day starting two days before blue light exposure. Twenty 4-month old male Sprague Dawley rats (body weight 470-550 g) were used in this study. The animals were exposed to room light on a 12 hour light/12 hour dark cycle before the experiment. All animals were dark adapted overnight (16-20 hours) before blue light. Under the intensity of 6100-6500 lux, rats were exposed to blue light for 4 hours. After the blue light, rats were placed in the dark for another 3 days before returning to normal 12 hour light/12 hour dark. Ocular Coherence Tomography (OCT) measurement was performed at 7 days post blue light exposure.

normal DB rabbits = test: Visual Enhancement Model (sweep visual evoked potential acuity); format: in vivo, rabbit; details: pigmented (Dutch-Belted) rabbits, intravenous route, 10-30 minutes post-dose, conscious animals, bilateral recordings
Experimental: Spatial sweep visual evoked potential (sVEP) acuity is assessed with PowerDiva software version 1.8. Recordings were made bilaterally in conscious animals.

Structure (SMILES)	retinal thickness measured by OCT after blue light exposure [1]	Spatial sweep visual evoked potential (sVEP) acuity (normal DB rabbits)
Cc1c(COC(=O)C(C)C)cccc1[C@H](C)c1c[nH]cn1 [Compound 1, iso-Butyric acid 3-[(S)-1-(1H-imidazol-4-yl)-ethyl]-2-methyl-benzyl ester]	significantly reduced the damage caused by blue light	enhances visual acuity
Brc1c(NC2=NCCN2)ccc2nccnc12 [Brimonidine, reference compound]	did not prevent the change in retinal thickness	
